Patent US20260028348A1, “MODULATORS OF TNF-ALPHA ACTIVITY” (Forward Therapeutics, Inc., priority 2023, published 2026)

Test system: HEK Blue™ TNFα reporter cells
Assay: TNF-α Induced HEK Blue Cellular Assay
Assay type: cell-based
Conditions: TNF-α stimulated HEK Blue TNFα reporter cells, 24 hrs, secreted alkaline phosphatase (QUANTI-Blue, 620 nm)
Experimental: Test articles were diluted in DMSO and serially diluted into 384 well assay plate (Corning 3765), at final concentrations ranging from […] to 0.5 nM. HEK Blue™ TNFα reporter cells were added at a final density of 10,000 cell per well in assay media [DMEM (Gibco, cat #21063-029), 10% fetal bovine serum (ExcelBio, cat #FND500), 1% Penicillin-Streptomycin (Solarbio, cat #P1400-100]. TNF-α (R&D 210-TA-020/CF) was then added to the assay plate at a final concentration of […]. This plate was then incubated for 24 hrs at 37° C. and 5% CO2. Secreted alkaline phosphatase expression was then measured using QUANTI-Blue™(Invivogen), according to manufacturer instructions and read on an Envision microplate reader at 620 nm.
Inhibition data for test compound over a range of concentration was plotted as percentage inhibition of the test compound (100%=maximum inhibition). IC50 values were determined after correcting for background [(sample read-mean of low control)/(mean of high control-mean of low control)] whereby the low control is DMSO without stimulation and high control is DMSO with stimulation. The IC50 is defined as the concentration of test compound which produces […] and was quantified using the 4 parameter logistic equation to fit the data.

**Q.** With CN1C(=O)c2cccc(OC(F)F)c2[C@H]2C[C@@H]1c1nc3ccc(-c4cnc5c(c4)CC[C@@]5(C)O)cc3n12 (single isomer, unassigned) [Example 11] as the compound, how does the IC50 read?
**A.** < 0.1 µM

**Q.** For CN1C(=O)c2cccc(OC(F)F)c2[C@H]2C[C@@H]1c1nc3ccc(-c4cnc5c(c4)CC[C@]5(C)O)cc3n12 (single isomer, unassigned) [Example 12], which IC50 is on record?
**A.** < 0.1 µM

**Q.** CN1C(=O)c2cccc(OC(F)F)c2[C@H]2C[C@@H]1c1nc3ccc(-c4cnc5c(c4)CC[C@@H]5N)cc3n12 (single isomer, unassigned) [Example 16] was tested. Which IC50 did it give?
**A.** < 0.1 µM

**Q.** How did the IC50 turn out when CN1C(=O)c2cccc(OC(F)F)c2[C@H]2C[C@@H]1c1nc3ccc(-c4cnc5c(c4)CC[C@H]5N)cc3n12 (single isomer, unassigned) [Example 17] was run?
**A.** < 0.1 µM

**Q.** With CN1C(=O)c2cccc(OC(F)F)c2[C@H]2C[C@@H]1c1nc3ccc(-c4cnc5c(c4)CC[C@@]5(C)N)cc3n12 (single isomer, unassigned) [Example 22] as the compound, how does the IC50 read?
**A.** < 0.1 µM

**Q.** For CN1C(=O)c2cccc(OC(F)F)c2[C@H]2C[C@@H]1c1nc3ccc(-c4cnc5c(c4)CC[C@]5(C)N)cc3n12 (single isomer, unassigned) [Example 23], which IC50 is on record?
**A.** < 0.1 µM

**Q.** Which IC50 does the source give for [2H]C([2H])([2H])N1C(=O)c2cccc(OC(F)F)c2[C@H]2C[C@@H]1c1nc3cc(F)c(-c4cnc5c(c4)CC[C@]5(C)N)cc3n12 (single isomer, unassigned) [Example 25] here?
**A.** < 0.1 µM

**Q.** Which IC50 does the source give for [2H]C([2H])([2H])N1C(=O)c2cccc(OC(F)F)c2[C@H]2C[C@@H]1c1nc3cc(F)c(-c4cnc5c(c4)CC[C@@]5(C)N)cc3n12 (single isomer, unassigned) [Example 26] here?
**A.** < 0.1 µM

**Q.** [2H]C([2H])([2H])N1C(=O)c2cccc(OC(F)F)c2[C@H]2C[C@@H]1c1nc3ccc(-c4cnc5c(c4)CC[C@]5(C)N)cc3n12 (single isomer, unassigned) [Example 28] was tested. Which IC50 did it give?
**A.** < 0.1 µM

**Q.** With [2H]C([2H])([2H])N1C(=O)c2cccc(OC(F)F)c2[C@H]2C[C@@H]1c1nc3ccc(-c4cnc5c(c4)CC[C@@]5(C)N)cc3n12 (single isomer, unassigned) [Example 29] as the compound, how does the IC50 read?
**A.** < 0.1 µM

**Q.** How did the IC50 turn out when [2H]C([2H])([2H])N1C(=O)c2cccc(OC(F)F)c2[C@H]2C[C@@H]1c1nc3ccc(-c4cnc5c(c4)CC[C@]5(C)O)cc3n12 (single isomer, unassigned) [Example 32] was run?
**A.** < 0.1 µM

**Q.** With [2H]C([2H])([2H])N1C(=O)c2cccc(OC(F)F)c2[C@H]2C[C@@H]1c1nc3ccc(-c4cnc5c(c4)CC[C@@]5(C)O)cc3n12 (single isomer, unassigned) [Example 33] as the compound, how does the IC50 read?
**A.** < 0.1 µM

**Q.** Which IC50 does the source give for [2H]C([2H])([2H])N1C(=O)c2cccc(OC(F)F)c2[C@H]2C[C@@H]1c1nc3ccc(-c4cnc5c(c4)OCC[C@]5(C)O)cc3n12 (single isomer, unassigned) [Example 34] here?
**A.** < 0.1 µM

**Q.** How did the IC50 turn out when [2H]C([2H])([2H])N1C(=O)c2cccc(OC(F)F)c2[C@H]2C[C@@H]1c1nc3ccc(-c4cnc5c(c4)OCC[C@@]5(C)O)cc3n12 (single isomer, unassigned) [Example 35] was run?
**A.** < 0.1 µM

**Q.** For CN1C(=O)c2cccc(OC(F)F)c2[C@H]2C[C@@H]1c1nc3ccc(-c4cnc5c(c4)CC[C@]5(N)CO)cc3n12 (single isomer, unassigned) [Example 36], which IC50 is on record?
**A.** < 0.1 µM

**Q.** Which IC50 does the source give for CN1C(=O)c2cccc(OC(F)F)c2[C@H]2C[C@@H]1c1nc3ccc(-c4cnc5c(c4)CC[C@@]5(N)CO)cc3n12 (single isomer, unassigned) [Example 37] here?
**A.** < 0.1 µM

**Q.** [2H]C([2H])([2H])N1C(=O)c2cccc(OC(F)F)c2[C@H]2C[C@@H]1c1nc3ccc(-c4cnc5c(c4)COC[C@]5(C)O)cc3n12 (single isomer, unassigned) [Example 38] was tested. Which IC50 did it give?
**A.** 10 to 30 µM

**Q.** For [2H]C([2H])([2H])N1C(=O)c2cccc(OC(F)F)c2[C@H]2C[C@@H]1c1nc3ccc(-c4cnc5c(c4)COC[C@@]5(C)O)cc3n12 (single isomer, unassigned) [Example 39], which IC50 is on record?
**A.** 10 to 30 µM

**Q.** Which IC50 does the source give for [2H]C([2H])([2H])N1C(=O)c2cccc(OC(F)F)c2[C@H]2C[C@@H]1c1nc3ccc(-c4cnc5c(c4)COC[C@@]5(O)CC)cc3n12 (single isomer, unassigned) [Example 40] here?
**A.** 10 to 30 µM

**Q.** For [2H]C([2H])([2H])N1C(=O)c2cccc(OC(F)F)c2[C@H]2C[C@@H]1c1nc3ccc(-c4cnc5c(c4)COC[C@]5(O)CC)cc3n12 (single isomer, unassigned) [Example 41], which IC50 is on record?
**A.** 10 to 30 µM

**Q.** Which IC50 does the source give for [2H]C([2H])([2H])N1C(=O)c2cccc(OC(F)F)c2[C@H]2C[C@@H]1c1nc3ccc(-c4cnc5c(c4)NC(=O)[C@]5(C)O)cc3n12 (single isomer, unassigned) [Example 42] here?
**A.** < 0.1 µM

**Q.** [2H]C([2H])([2H])N1C(=O)c2cccc(OC(F)F)c2[C@H]2C[C@@H]1c1nc3ccc(-c4cnc5c(c4)NC(=O)[C@@]5(C)O)cc3n12 (single isomer, unassigned) [Example 43] was tested. Which IC50 did it give?
**A.** < 0.1 µM

**Q.** [2H]C([2H])([2H])N1C(=O)c2cccc(OC(F)F)c2[C@H]2C[C@@H]1c1nc3ccc(-c4cnc5c(c4)OC[C@]5(C)O)cc3n12 (single isomer, unassigned) [Example 46] was tested. Which IC50 did it give?
**A.** < 0.1 µM

**Q.** Which IC50 does the source give for [2H]C([2H])([2H])N1C(=O)c2cccc(OC(F)F)c2[C@H]2C[C@@H]1c1nc3ccc(-c4cnc5c(c4)OC[C@@]5(C)O)cc3n12 (single isomer, unassigned) [Example 47] here?
**A.** < 0.1 µM

**Q.** For [2H]C([2H])([2H])N1C(=O)c2cccc(OC(F)F)c2[C@H]2C[C@@H]1c1nc3ccc(-c4cnc5c(c4)CC[C@@]5(C)O)c(F)c3n12 (single isomer, unassigned) [Example 49], which IC50 is on record?
**A.** 0.1 to 1 µM

**Q.** [2H]C([2H])([2H])N1C(=O)c2cccc(OC(F)F)c2[C@H]2C[C@@H]1c1nc3ccc(-c4cnc5c(c4)CC[C@]5(C)O)c(F)c3n12 (single isomer, unassigned) [Example 50] was tested. Which IC50 did it give?
**A.** < 0.1 µM

**Q.** For [2H]C([2H])([2H])N1C(=O)c2cccc(OC(F)F)c2[C@H]2C[C@@H]1c1nc3ccc(-c4cnc5c(c4)OCC[C@@]5(C)O)c(F)c3n12 (single isomer, unassigned) [Example 51], which IC50 is on record?
**A.** < 0.1 µM

**Q.** [2H]C([2H])([2H])N1C(=O)c2cccc(OC(F)F)c2[C@H]2C[C@@H]1c1nc3ccc(-c4cnc5c(c4)OCC[C@]5(C)O)c(F)c3n12 (single isomer, unassigned) [Example 52] was tested. Which IC50 did it give?
**A.** < 0.1 µM

**Q.** With [2H]C([2H])([2H])N1C(=O)c2cccc(OC(F)F)c2[C@H]2C[C@@H]1c1nc3ccc(-c4cnc5c(c4)OC[C@@]5(C)O)c(F)c3n12 (single isomer, unassigned) [Example 53] as the compound, how does the IC50 read?
**A.** < 0.1 µM

**Q.** For [2H]C([2H])([2H])N1C(=O)c2cccc(OC(F)F)c2[C@H]2C[C@@H]1c1nc3ccc(-c4cnc5c(c4)OC[C@]5(C)O)c(F)c3n12 (single isomer, unassigned) [Example 54], which IC50 is on record?
**A.** < 0.1 µM

**Q.** How did the IC50 turn out when [2H]C([2H])([2H])N1C(=O)c2cccc(OC(F)F)c2[C@H]2C[C@@H]1c1nc3ccc(-c4cnc5c(c4)OC[C@]5(C)N)cc3n12 (single isomer, unassigned) [Example 55] was run?
**A.** < 0.1 µM

**Q.** With [2H]C([2H])([2H])N1C(=O)c2cccc(OC(F)F)c2[C@H]2C[C@@H]1c1nc3ccc(-c4cnc5c(c4)OC[C@@]5(C)N)cc3n12 (single isomer, unassigned) [Example 56] as the compound, how does the IC50 read?
**A.** < 0.1 µM

**Q.** Which IC50 does the source give for CN1C(=O)c2cccc(OC(F)F)c2[C@H]2C[C@@H]1c1nc3ccc(-c4cnc5c(c4)OC[C@]5(C)N)cc3n12 (single isomer, unassigned) [Example 57] here?
**A.** < 0.1 µM

**Q.** With CN1C(=O)c2cccc(OC(F)F)c2[C@H]2C[C@@H]1c1nc3ccc(-c4cnc5c(c4)OC[C@@]5(C)N)cc3n12 (single isomer, unassigned) [Example 58] as the compound, how does the IC50 read?
**A.** < 0.1 µM

**Q.** Which IC50 does the source give for [2H]C([2H])([2H])N1C(=O)c2cccc(OC(F)F)c2[C@H]2C[C@@H]1c1nc3ccc(-c4cnc5c(c4)OC[C@@]5(C)N)nc3n12 (single isomer, unassigned) [Example 59] here?
**A.** 10 to 30 µM

**Q.** Which IC50 does the source give for [2H]C([2H])([2H])N1C(=O)c2cccc(OC(F)F)c2[C@H]2C[C@@H]1c1nc3ccc(-c4cnc5c(c4)OC[C@]5(C)N)nc3n12 (single isomer, unassigned) [Example 60] here?
**A.** 0.1 to 1 µM

**Q.** How did the IC50 turn out when [2H]C([2H])([2H])N1C(=O)c2cccc(OC(F)F)c2[C@H]2C[C@@H]1c1nc3cc(F)c(-c4cnc5c(c4)OC[C@@]5(C)N)cc3n12 (single isomer, unassigned) [Example 61] was run?
**A.** < 0.1 µM

**Q.** Which IC50 does the source give for [2H]C([2H])([2H])N1C(=O)c2cccc(OC(F)F)c2[C@H]2C[C@@H]1c1nc3cc(F)c(-c4cnc5c(c4)OC[C@]5(C)N)cc3n12 (single isomer, unassigned) [Example 62] here?
**A.** < 0.1 µM

**Q.** Which IC50 does the source give for [2H]C([2H])([2H])N1C(=O)c2cccc(OC(F)F)c2[C@H]2C[C@@H]1c1nc3ccc(-c4cnc5c(c4)OC[C@@]5(C)O)nc3n12 (single isomer, unassigned) [Example 63] here?
**A.** 0.1 to 1 µM

**Q.** Which IC50 does the source give for [2H]C([2H])([2H])N1C(=O)c2cccc(OC(F)F)c2[C@H]2C[C@@H]1c1nc3ccc(-c4cnc5c(c4)OC[C@]5(C)O)nc3n12 (single isomer, unassigned) [Example 64] here?
**A.** 0.1 to 1 µM

**Q.** How did the IC50 turn out when [2H]C([2H])([2H])N1C(=O)c2cccc(OC(F)F)c2[C@H]2C[C@@H]1c1nc3ccc(-c4cnc5c(c4)OC[C@@]5(C)N)c(F)c3n12 (single isomer, unassigned) [Example 65] was run?
**A.** < 0.1 µM

**Q.** [2H]C([2H])([2H])N1C(=O)c2cccc(OC(F)F)c2[C@H]2C[C@@H]1c1nc3ccc(-c4cnc5c(c4)OC[C@]5(C)N)c(F)c3n12 (single isomer, unassigned) [Example 66] was tested. Which IC50 did it give?
**A.** < 0.1 µM
